Values joined by “and” are separate entries in the source; they are usually repeats but may differ in a detail not shown here. Identical values can stand only once. Like-named read-outs stand apart in the source and are kept apart here.
Tests used:
[1] = target: T1, rat GPR14 (U-II receptor) (Rattus norvegicus, UniProt P49684); test: Rat UII Calcium Mobilization FLIPR Assay; type: cell-based; details: for inhibition at 10 µM / inhibition at 50 µM: CHO, 5 min, agonist-induced Ca2+ mobilization (FLIPR), CHO cells with rat UII receptor; for inhibition at 10 µM: 10 μM compound, read-out: % I @ 10; for inhibition at 50 µM: 50 μM compound, read-out: % I @ 50
T1 construct: expressed in transfected cells
T1 sequence (P49684 1-386): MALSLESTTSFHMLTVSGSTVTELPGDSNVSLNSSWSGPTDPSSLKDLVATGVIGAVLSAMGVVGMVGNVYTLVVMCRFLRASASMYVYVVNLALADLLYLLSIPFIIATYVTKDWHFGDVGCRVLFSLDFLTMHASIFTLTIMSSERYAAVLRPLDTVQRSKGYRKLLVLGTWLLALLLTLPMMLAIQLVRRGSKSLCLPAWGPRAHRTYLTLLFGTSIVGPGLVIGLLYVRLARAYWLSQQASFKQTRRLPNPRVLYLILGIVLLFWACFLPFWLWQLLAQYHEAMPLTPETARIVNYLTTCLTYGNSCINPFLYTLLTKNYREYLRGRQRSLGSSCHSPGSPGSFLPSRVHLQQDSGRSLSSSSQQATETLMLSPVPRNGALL
Method in brief: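 CHO cells stably expressing rat U-II receptor, seeded 24 h before assay, were loaded with FLIPR calcium dye in HBSS/20 mM HEPES/0.1% BSA/2.5 mM probenecid, pH 7.4, for 1 h at 37° C. Calcium mobilization then read by FLIPR at 23° C.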

[2] = target: T2, endogenous human UII receptor (Homo sapiens, UniProt Q9UKP6); test: Human Radioligand Binding Assay ((^125I)-U-II binding to human skeletal muscle myoblasts)
T2 sequence (Q9UKP6 1-389): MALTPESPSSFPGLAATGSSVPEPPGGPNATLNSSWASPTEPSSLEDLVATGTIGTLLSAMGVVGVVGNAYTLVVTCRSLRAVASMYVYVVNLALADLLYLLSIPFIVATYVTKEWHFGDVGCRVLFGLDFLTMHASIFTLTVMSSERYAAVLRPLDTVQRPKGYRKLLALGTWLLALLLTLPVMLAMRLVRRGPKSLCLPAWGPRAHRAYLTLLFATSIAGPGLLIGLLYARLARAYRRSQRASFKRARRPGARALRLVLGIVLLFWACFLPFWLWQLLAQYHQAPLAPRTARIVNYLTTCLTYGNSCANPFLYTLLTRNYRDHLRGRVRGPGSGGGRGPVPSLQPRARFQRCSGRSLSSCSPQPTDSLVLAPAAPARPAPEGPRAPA

[3] = Inhibition of Acetyl-cyclic[Cys-Phe-Trp-Lys-(2-Nal)-Cys]-NH2 induced Ca2+ mobilization (FLIPR) in CHO cells transfected with rat UII receptor, read-out: IC50
[4] = Inhibition of human UII binding to human skeletal muscle myoblasts containing endogenous human UII receptor
[5] = average value for the compound tested, read-out: Rat UII FLIPR Average IC50

Row | SMILES | inhibition at 10 µM [1] [%] | inhibition at 50 µM [1] [%] | IC50 [1, 3] | Ki [2] [nM] | Ki [2, 4] [nM] | IC50 ([1]; IC50 (μM), Inhibition of Acetyl-cyclic[Cys-Phe-Trp-Lys-(2-Nal)-Cys]-NH2 induced Ca2+ mobilization (FLIPR) in CHO cells transfected with rat UII receptor) [µM] | IC50 [1, 5] [µM]
1 | CCC(c1ccccc1)N1CCN(c2cccc3c2C(=O)N(Cc2ccc(OC)c(OC)c2)C3=O)CC1 (centres unmarked) [Cpd 13, 2-(3,4-dimethoxy-benzyl)-4-[4-(1-phenyl-propyl)-piperazin-1-yl]-isoindole-1,3-dione] | 95 | 99 | 0.41 µM | 4000 | – | – | –
2 | COc1cc(CN2C(=O)c3cccc(N4CCN([C@H](C)c5ccccc5)CC4)c3C2=O)ccc1O [Cpd 15, 2-(4-hydroxy-3-methoxy-benzyl)-4-[4-(1R)-(1-phenyl-ethyl)-piperazin-1-yl]-isoindole-1,3-dione] | 100 | 100 | 0.82 µM | 5200 | – | – | –
3 | COc1ccc(CN2C(=O)c3cccc(N4CCN(Cc5cccc(F)c5)CC4)c3C2=O)cc1OC [Cpd 17, 2-(3,4-dimethoxy-benzyl)-4-[4-(3-fluoro-benzyl)-piperazin-1-yl]-isoindole-1,3-dione] | 99 | 101 | 1.1 µM | 3500 | – | – | –
4 | CCOc1ccc(CN2C(=O)c3cccc(N4CCN([C@H](C)c5ccccc5)CC4)c3C2=O)cc1OC [Cpd 18, 2-(4-ethoxy-3-methoxy-benzyl)-4-[4-(1R)-(1-phenyl-ethyl)-piperazin-1-yl]-isoindole-1,3-dione] | 98 | 101 | 1.4 µM | 2900 | – | – | –
5 | COc1ccc(CN2C(=O)c3cccc(C4=CCN(Cc5ccccc5)CC4)c3C2=O)cc1OC [Cpd 19, 4-(1-benzyl-1,2,3,6-tetrahydro-pyridin-4-yl)-2-(3,4-dimethoxy-benzyl)-isoindole-1,3-dione] | 94 | 100 | 1.5 µM | 5200 | – | – | –
6 | COc1ccc(CN2C(=O)c3cccc(N4CCN(C(C)(C)c5ccccc5)CC4)c3C2=O)cc1OC [Cpd 28, 2-(3,4-dimethoxy-benzyl)-4-[4-(1-methyl-1-phenyl-ethyl)-piperazin-1-yl]-isoindole-1,3-dione] | 75 | 101 | 4.2 µM | 5500 | – | – | –
7 | COc1ccc(C(CN(C)C)N2C(=O)c3cccc(N4CCN([C@H](C)c5ccccc5)CC4)c3C2=O)cc1OC (stereo partly drawn) [Cpd 63, 2-[1-(3,4-dimethoxy-phenyl)-2-dimethylamino-ethyl]-4-[4-(1R)-(1-phenyl-ethyl)-piperazin-1-yl]-isoindole-1,3-dione] | 102 | 102 | 0.4 µM | 2800 | – | – | –
8 | COc1ccc(C(CN)N2C(=O)c3cccc(N4CCN([C@H](C)c5ccccc5)CC4)c3C2=O)cc1OC (stereo partly drawn) [Cpd 64, 2-[2-amino-1-(3,4-dimethoxy-phenyl)-ethyl]-4-[4-(1R)-(1-phenyl-ethyl)-piperazin-1-yl]-isoindole-1,3-dione] | 101 | 98 | 0.3 µM | 700 | – | – | –
9 | COc1ccc(C(CCCNC(=O)OC(C)(C)C)N2C(=O)c3cccc(N4CCN([C@H](C)c5ccccc5)CC4)c3C2=O)cc1OC (stereo partly drawn) [Cpd 65, (4-(3,4-dimethoxy-phenyl)-4-{1,3-dioxo-4-[4-(1R)-(1-phenyl-ethyl)-piperazin-1-yl]-1,3-dihydro-isoindol-2-yl}-butyl)-carbamic acid tert-butyl ester] | 103 | 102 | 0.2 µM | – | 200 | – | –
10 | COc1ccc(C(CCCN)N2C(=O)c3cccc(N4CCN([C@H](C)c5ccccc5)CC4)c3C2=O)cc1OC (stereo partly drawn) [Cpd 66, 2-[4-amino-1-(3,4-dimethoxy-phenyl)-butyl]-4-[4-(1R)-(1-phenyl-ethyl)-piperazin-1-yl]-isoindole-1,3-dione] | 101 | 97 | 0.2 µM | – | 3200 | – | –
11 | COc1ccc(C(CCCNS(C)(=O)=O)N2C(=O)c3cccc(N4CCN([C@H](C)c5ccccc5)CC4)c3C2=O)cc1OC (stereo partly drawn) [Cpd 67, N-(4-(3,4-dimethoxy-phenyl)-4-{1,3-dioxo-4-[4-(1R)-(1-phenyl-ethyl)-piperazin-1-yl]-1,3-dihydro-isoindol-2-yl}-butyl)-methanesulfonamide] | 101 | 99 | 0.1 µM | 1400 | – | 0.11 | –
12 | COc1ccc(C(CCCNS(=O)(=O)c2cccs2)N2C(=O)c3cccc(N4CCN([C@H](C)c5ccccc5)CC4)c3C2=O)cc1OC (stereo partly drawn) [Cpd 68, thiophene-2-sulfonic acid (4-(3,4-dimethoxy-phenyl)-4-{1,3-dioxo-4-[4-(1R)-(1-phenyl-ethyl)-piperazin-1-yl]-1,3-dihydro-isoindol-2-yl}-butyl)-amide] | 98 | 99 | 0.1 µM and 0.08 µM | – | 76 | – | –
13 | COc1ccc(C(CCCCNC(=O)OC(C)(C)C)N2C(=O)c3cccc(N4CCN([C@H](C)c5ccccc5)CC4)c3C2=O)cc1OC (stereo partly drawn) [Cpd 69, (5-(3,4-dimethoxy-phenyl)-5-{1,3-dioxo-4-[4-(1R)-(1-phenyl-ethyl)-piperazin-1-yl]-1,3-dihydro-isoindol-2-yl}-pentyl)-carbamic acid tert-butyl ester] | 11 | 52 | 65 µM | > 10000 | – | – | –
14 | COc1ccc(C(CCCCN)N2C(=O)c3cccc(N4CCN([C@H](C)c5ccccc5)CC4)c3C2=O)cc1OC (stereo partly drawn) [Cpd 70, 2-[5-amino-1-(3,4-dimethoxy-phenyl)-pentyl]-4-[4-(1R)-(1-phenyl-ethyl)-piperazin-1-yl]-isoindole-1,3-dione] | 102 | 101 | 0.3 µM and 0.27 µM | 5400 | – | – | –
15 | COc1ccc(CN2C(=O)c3cccc(C4CCN(Cc5ccccc5)CC4)c3C2=O)cc1OC [Cpd 76, 4-(1-benzyl-piperidin-4-yl)-2-(3,4-dimethoxy-benzyl)-isoindole-1,3-dione] | 98 | 99 | 0.96 µM | 1500 | – | – | –
16 | COc1ccc(CN2C(=O)c3cccc(N4CCN(Cc5ccc(C)o5)CC4)c3C2=O)cc1OC [Cpd 77, 2-(3,4-dimethoxy-benzyl)-4-[4-(5-methyl-furan-2-ylmethyl)-piperazin-1-yl]-isoindole-1,3-dione] | – | – | – | 7200 | – | – | 0.85
17 | COc1ccc(CN2C(=O)c3cccc(N4CCN(Cc5ccoc5)CC4)c3C2=O)cc1OC [Cpd 78, 2-(3,4-dimethoxy-benzyl)-4-(4-furan-3-ylmethyl-piperazin-1-yl)-isoindole-1,3-dione] | – | – | – | 2600 | – | – | 0.27
18 | COc1ccc(CN2C(=O)c3cccc(N4CCN(Cc5cccnc5)CC4)c3C2=O)cc1OC [Cpd 79, 2-(3,4-dimethoxy-benzyl)-4-(4-pyridin-3-ylmethyl-piperazin-1-yl)-isoindole-1,3-dione] | – | – | – | > 10000 | – | – | 1.2
19 | COc1ccc(CN2C(=O)c3cccc(N4CCN(CC5CCCC5)CC4)c3C2=O)cc1OC [Cpd 80, 4-(4-cyclopentylmethyl-piperazin-1-yl)-2-(3,4-dimethoxy-benzyl)-isoindole-1,3-dione] | – | – | – | > 10000 | – | – | 1.3
20 | COc1ccc(CN2C(=O)c3cccc(N4CCN(Cc5cccs5)CC4)c3C2=O)cc1OC [Cpd 81, 2-(3,4-dimethoxy-benzyl)-4-(4-thiophen-2-ylmethyl-piperazin-1-yl)-isoindole-1,3-dione] | – | – | – | > 10000 | – | – | 1.4
21 | COc1ccc(CN2C(=O)c3cccc(N4CCN(Cc5ccsc5)CC4)c3C2=O)cc1OC [Cpd 83, 2-(3,4-dimethoxy-benzyl)-4-(4-thiophen-3-ylmethyl-piperazin-1-yl)-isoindole-1,3-dione] | – | – | – | 1600 | – | – | 0.23
22 | COc1ccc(CN2C(=O)c3cccc(N4CCN(Cc5ccccc5O)CC4)c3C2=O)cc1OC [Cpd 85, 2-(3,4-dimethoxy-benzyl)-4-[4-(2-hydroxy-benzyl)-piperazin-1-yl]-isoindole-1,3-dione] | – | – | – | 3600 | – | – | 2.2
23 | C/C=C(\C)CN1CCN(c2cccc3c2C(=O)N(Cc2ccc(OC)c(OC)c2)C3=O)CC1 [Cpd 86, (E)-2-(3,4-dimethoxy-benzyl)-4-[4-(2-methyl-but-2-enyl)-piperazin-1-yl]-isoindole-1,3-dione] | – | – | – | 1300 | – | – | 0.29

From US8193191B2, “Urotensin II receptor antagonists” (Janssen Pharmaceutica N.V., priority 2006, dated 2012)
